Results on 4 compounds are retold here after PMC8037310, “Thrombin-Derived Peptides Potentiate the Activity of Gram-Positive-Specific Antibiotics against Gram-Negative Bacteria” (Molecules, 2021).

The test system of assay [1] is A. baumannii ATCC17978. Kind of assay: microbe, parasite or virus in culture. It is filed as cell-based, Acinetobacter baumannii. The settings on record: for MICpeptide: peptide alone; for MICpeptide / MSCpeptide / MSCrif: A. baumannii ATCC17978; for MSCpeptide: peptide concentration in the combination with rifampicin giving the lowest FICi; for MSCrif: rifampicin concentration in the combination giving the lowest FICi. Here is the method:
(§1) All peptides were screened for antimicrobial activity against E. coli BW25113, E. coli ATCC25922, and E. coli W3110. A select group of the peptides was further tested against E. coli mcr-1, E. coli EQASmcr-1 (EQAS 2016 412016126), E. coli EQASmcr-2 (EQAS 2016 KP37), E. coli EQASmcr-3 (EQAS 2017 2013-SQ352), K. pneumoniae ATCC13883, P. aeruginosa ATCC27853, and A. baumannii ATCC17978. The antimicrobial assay was performed according to CLSI guidelines. Bacteria were plated out directly from their glycerol stocks on blood agar plates, incubated overnight at 37 °C, and then kept in the fridge. The blood agar plates were only used for 2 weeks and then replaced.
(§2) One colony from a blood agar plates was inoculated in Lysogeny Broth (LB) at 37 °C until a 0.5 optical density at 600 nm (OD600) was reached (compared to the sterility control of LB). The bacterial suspension was diluted in fresh LB to 2.0 × 10^6 CFU/mL. The serial dilutions were prepared in polypropylene microtiter plates: a stock of the test compounds was prepared with a 2x final concentration in LB. Moreover, 100 µL of the stock was added to the wells of the top row of which 50 µL was used for the serial dilution. The bottom row of each plate was used as the positive (50 µL of LB) and negative controls (100 µL of LB) (6 wells each). Furthermore, 50 µL of the 2.0 × 10^6 CFU/mL bacterial stock was added to each well except for the negative controls, adding up to a total volume of 100 µL per well. The plates were sealed with a breathable seal and incubated for 20 h at 37 °C and 600 rpm.
(§3) Two 96-well plates were required per compound. A serial dilution of the compound was performed on two plates from row A–G using with LB as medium. Row H was filled with 25 µL medium. On a separate plate a negative control (8 wells, 100 μL medium) was prepared. For all concentrations of antibiotic a specific stock was prepared. 25 µL medium was added to the 0 µg/mL antibiotic columns (plate I, column 1–3). Of each antibiotic stock 25 µL was added to three columns to obtain triplicates for every condition. Both plates contained 50 µL in each well to which 50 µL bacterial stock was added (see the protocol of the MIC assays) and the plates were sealed. After incubation for 20 h at 37 °C while shaking, the breathable seals were removed and the density of the bacterial suspensions measured at 600 nm (OD600) using a Tecan Spark plate reader. The OD600 values were transformed to a 2D gradient with the negative control as minimum and the positive control (wells G1, G2, and G3) as maximum in excel. The FICi was calculated using Equation (1) with a FICi ≤ 0.5 indicating synergy. FICi = (MSCa/MICa) + (MSCb/MICb),(1)
(§4) Calculation of the FICi: MSCa = concentration of the […] in combination with the antibiotic that results in the lowest FICi. MICa = MIC of the antibiotic without synergist (row G). MSCb = concentration of the synergist in combination with the antibiotic that results in the lowest FICi. MICb = MIC of the synergist itself (Column 1–3, plate I).

Assay [2] deals with K. pneumoniae ATCC13883. Briefly: Checkerboard assay with rifampicin. Format: cell-based, Klebsiella pneumoniae. Particulars: K. pneumoniae ATCC13883; for MICpeptide: peptide alone; for MSCpeptide: peptide concentration in the combination with rifampicin giving the lowest FICi; for MSCrif: rifampicin concentration in the combination giving the lowest FICi. How it is done: as §1, §2, §3, §4

For assay [3], the system named is E. coli mcr-1. Format: cell-based, Escherichia coli. Particulars: for MICpeptide: peptide alone; for MICpeptide / MSCpeptide / MSCrif: E. coli mcr-1; for MSCpeptide: peptide concentration in the combination with rifampicin giving the lowest FICi; for MSCrif: rifampicin concentration in the combination giving the lowest FICi; for FICi: with rifampicin vs E. coli mcr-1. The essentials:
(§5)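 Checkerboard of peptide serial dilutions against rifampicin concentrations in triplicate, in LB with 1.0 × 10^6 CFU/mL final inoculum after mixing the 2.0 × 10^6 CFU/mL stock 1:1, 20 h at 37 °C shaking. OD600 read; FICi = MSCa/MICa + MSCb/MICb, ≤0.5 taken as synergy.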

Assay [4] concerns E. coli ATCC25922. Format: cell-based, Escherichia coli. The settings on record: for FICi: ATCC25922, 20 h; for MICpeptide: peptide alone; for MICpeptide / MSCpeptide / MSCrif: E. coli ATCC25922; for MSCpeptide: peptide concentration in the combination with rifampicin giving the lowest FICi; for MSCrif: rifampicin concentration in the combination giving the lowest FICi. The essentials:
as §5

Assay [5] concerns E. coli BW25113. Kind of assay: microbe, parasite or virus in culture. Format: cell-based, Escherichia coli. Particulars: for FICi: BW25113, 20 h; for MICpeptide: synergist alone, E. coli BW25113, from checkerboard with vancomycin; for MSCpeptide: synergist concentration in the combination with vancomycin giving the lowest FICi; for MSCpeptide / MSCvanco: E. coli BW25113; for MSCvanco: vancomycin concentration in the combination giving the lowest FICi. How it is done: as §1, §2, §3, §4

In assay [6] the test system is E. coli BW25113. Kind of assay: LPS competition assay. Format: cell-based, Escherichia coli. The settings on record: E. coli BW25113, LB, 20 h 37 °C, visual read-out. How it is done: as §2
The same protocol as the MIC assay was used to prepare the serial dilution of the compounds in 96-wells plates in duplicate resulting in two identical plates. A serial dilution of colistin was taken along as a control. The inoculation and preparation of the bacteria stock was performed as described for the MIC assay. The stock of bacteria was then split into two stocks. […] The normal bacteria stock was added to the remaining plate as described in the MIC assay.

[7] abbreviates: with rifampicin vs A. baumannii ATCC17978.

Each structure is given as a SMILES string. Values after ≈ are worked out from the molar mass of the structure shown. Peptide text beside a SMILES is read from it.

Turning to `CC[C@H](C)[C@H](NC(=O)[C@@H](NC(=O)[C@H](CCCCN)NC(=O)[C@H](CCC(N)=O)NC(=O)[C@@H](NC(=O)[C@H](C)NC(=O)[C@H](CCCCN)NC(=O)[C@H](CCCCN)NC(=O)[C@H](CC(C)C)NC(=O)[C@H](CCCNC(=N)N)NC(=O)[C@H](Cc1ccccc1)NC(=O)[C@@H](N)C(C)C)[C@@H](C)CC)C(C)C)C(N)=O` [peptide 14] (H-VFRLKKAIQKVI-NH2), the FICi in assay [1] (ATCC17978, 20 h) amounted to 0.0781; in assay [3], 0.1250; in assay [4], 0.0313; in assay [5], 0.2500. The MICpeptide in assay [1], in assay [2], in assay [3], in assay [4] and in assay [5] was above 200 µg/mL throughout. The MSCpeptide in assay [1] stood at 6.25 µg/mL; in assay [2] it was 6.25 µg/mL; in assay [3], 25 µg/mL; in assay [4], 6.25 µg/mL; in assay [5], 50 µg/mL. In addition, the MSCrif in assay [1] was determined as 0.125 µg/mL; in assay [2] it was 0.25 µg/mL; in assay [3], 0.75 µg/mL; in assay [4] it was 0.063 µg/mL. For the same compound, the MSCvanco in assay [5] stood at 50 µg/mL.

For `CC[C@H](C)[C@H](NC(=O)[C@H](Cc1c[nH]c2ccccc12)NC(=O)[C@H](CCCCN)NC(=O)[C@H](CCCCN)NC(=O)[C@H](CC(C)C)NC(=O)[C@H](CCCNC(=N)N)NC(=O)[C@H](Cc1ccccc1)NC(=O)[C@@H](N)C(C)C)C(=O)N[C@@H](CCC(N)=O)C(=O)N[C@@H](CCCCN)C(=O)N[C@H](C(=O)N[C@@H](C)C(N)=O)C(C)C` [peptide 19] (H-VFRLKKWIQKVA-NH2), the FICi is 0.0938 in assay [1] (ATCC17978, 20 h) and 0.0313 in assay [4]. Moreover, the MICpeptide in assay [1] was 100 µg/mL; in assay [2], above 200 µg/mL; in assay [3] it was above 200 µg/mL; in assay [4], above 200 µg/mL; in assay [5] it was 200 µg/mL. Further, the MSCpeptide in assay [1] was 6.25 µg/mL; in assay [2] it was 6.25 µg/mL; in assay [3], 25 µg/mL; in assay [4], 6.25 µg/mL; in assay [5], 12.5 µg/mL. The MSCrif came out at 0.063 µg/mL in assay [1], 0.25 µg/mL in assay [2], 0.75 µg/mL in assay [3] and 0.063 µg/mL in assay [4]. In addition, in assay [5], the MSCvanco came out at 6.25 µg/mL.

With `CC[C@H](C)[C@H](NC(=O)[C@@H](NC(=O)[C@H](CCCCN)NC(=O)[C@H](CCC(N)=O)NC(=O)[C@@H](NC(=O)[C@H](Cc1c[nH]c2ccccc12)NC(=O)[C@H](CCCCN)NC(=O)[C@H](CCCCN)NC(=O)[C@H](CC(C)C)NC(=O)[C@H](C)NC(=O)[C@H](Cc1ccccc1)NC(=O)[C@@H](N)C(C)C)[C@@H](C)CC)C(C)C)C(N)=O` [peptide 10] (H-VFALKKWIQKVI-NH2), the MICpeptide in assay [1] is 50 µg/mL; in assay [2], above 200 µg/mL; in assay [3] it was above 200 µg/mL; in assay [4], above 200 µg/mL; in assay [5] it was 100 µg/mL. Moreover, the MSCpeptide in assay [1] was 3.125 µg/mL; in assay [2], 12.5 µg/mL; in assay [3] it was 25 µg/mL; in assay [4] it was 6.25 µg/mL; in assay [5] it was 12.5 µg/mL. Further, the MSCrif amounted to 0.125 µg/mL in assay [1], 1 µg/mL in assay [2], 0.188 µg/mL in assay [3] and 0.063 µg/mL in assay [4]. Also, the FICi in assay [1] (setting [7]) is on record as 0.1250; in assay [3], 0.0781; in assay [4] it was 0.0313; in assay [5] it was 0.1563. Moreover, the MSCvanco in assay [5] is 12.5 µg/mL.

As usually defined, the MIC is the lowest concentration that inhibits growth of the organism. Take `CC[C@H](C)[C@H](NC(=O)[C@@H](NC(=O)[C@H](CCCCN)NC(=O)[C@H](CCC(N)=O)NC(=O)[C@@H](NC(=O)[C@H](Cc1c[nH]c2ccccc12)NC(=O)[C@H](CCCCN)NC(=O)[C@H](CCCCN)NC(=O)[C@H](CC(C)C)NC(=O)[C@H](CCCNC(=N)N)NC(=O)[C@H](Cc1ccccc1)NC(=O)[C@@H](N)C(C)C)[C@@H](C)CC)C(C)C)C(N)=O` [peptide 6] (H-VFRLKKWIQKVI-NH2): the MICpeptide in assay [1] is 50 µg/mL; in assay [2], 100 µg/mL; in assay [3], 100 µg/mL; in assay [4], 200 µg/mL; in assay [5], 25 µg/mL. The MSCpeptide in assay [1] is 3.125 µg/mL; in assay [2], 3.125 µg/mL; in assay [3], 12.5 µg/mL; in assay [4], 6.25 µg/mL; in assay [5], 3.125 µg/mL. For the same compound, the MSCrif in assay [1] is 0.125 µg/mL; in assay [2], 1 µg/mL; in assay [3] it was 0.188 µg/mL; in assay [4], 0.063 µg/mL. The FICi was 0.1250 in assay [1] (setting [7]), 0.1406 in assay [3] and 0.0469 in assay [4]. The “MIC + 1.0 mg/ml LPS” value in assay [6] (in the presence of 1 mg/mL LPS) is recorded as 200 µg/mL. In assay [6] (without LPS), the MIC was 12.5 µg/mL (≈ 8.03 µM). For the same compound, the MSCvanco in assay [5] was found to be 25 µg/mL.
